Measurements as given in ChEMBL document CHEMBL5120937, “Design, Synthesis, and Biological Activity of l-1'-Homologated Adenosine Derivatives” (ACS Med Chem Lett, 2022).

How the values were obtained:
Mesenchymal stem cells [1] = experiment: Induction of adipogenesis in human differentiated BMMSC cells assessed as fold increase in adiponectin production at 10 uM measured on 5 day in presence of IDX induction medium by ELISA; type: functional
[2] = molecular target: T1, Peroxisome proliferator-activated receptor alpha (Homo sapiens) (UniProt Q07869); experiment: Binding affinity to PPARalpha (unknown origin) at 10 uM by TR-FRET based LanthaScreen competitive binding assay relative to control
T1 sequence (whole entry): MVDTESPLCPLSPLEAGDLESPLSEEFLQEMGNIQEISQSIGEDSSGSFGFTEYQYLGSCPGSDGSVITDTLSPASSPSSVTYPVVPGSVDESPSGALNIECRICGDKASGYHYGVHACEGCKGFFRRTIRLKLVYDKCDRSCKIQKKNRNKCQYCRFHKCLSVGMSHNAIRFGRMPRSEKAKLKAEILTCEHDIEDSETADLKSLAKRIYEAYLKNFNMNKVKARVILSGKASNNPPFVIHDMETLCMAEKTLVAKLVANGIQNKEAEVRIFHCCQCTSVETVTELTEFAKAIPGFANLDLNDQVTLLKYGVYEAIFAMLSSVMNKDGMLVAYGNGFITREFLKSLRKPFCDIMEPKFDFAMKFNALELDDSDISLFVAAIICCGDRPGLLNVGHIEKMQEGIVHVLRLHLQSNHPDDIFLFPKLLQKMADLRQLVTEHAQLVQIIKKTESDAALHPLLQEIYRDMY

[3] = molecular target: T2, Peroxisome proliferator-activated receptor gamma (Homo sapiens) (UniProt P37231); experiment: Binding affinity to PPARgamma (unknown origin) at 10 uM by TR-FRET based LanthaScreen competitive binding assay relative to control
T2 sequence (whole entry): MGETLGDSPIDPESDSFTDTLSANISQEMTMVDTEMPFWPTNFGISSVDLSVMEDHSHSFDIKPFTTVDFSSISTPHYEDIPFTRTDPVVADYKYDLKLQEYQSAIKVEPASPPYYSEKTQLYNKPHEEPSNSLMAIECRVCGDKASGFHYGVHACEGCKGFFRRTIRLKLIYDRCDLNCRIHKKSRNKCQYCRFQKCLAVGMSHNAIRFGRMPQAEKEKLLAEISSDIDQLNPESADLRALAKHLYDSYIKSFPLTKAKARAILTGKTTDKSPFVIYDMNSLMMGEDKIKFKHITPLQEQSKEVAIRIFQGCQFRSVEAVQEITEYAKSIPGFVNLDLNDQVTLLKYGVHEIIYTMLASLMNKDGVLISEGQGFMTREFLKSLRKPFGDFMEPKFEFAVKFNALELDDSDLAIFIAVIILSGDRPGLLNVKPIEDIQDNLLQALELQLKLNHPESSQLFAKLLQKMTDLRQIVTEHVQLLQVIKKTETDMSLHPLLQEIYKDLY

[4] = molecular target: T3, Peroxisome proliferator-activated receptor delta (Homo sapiens, UniProt Q03181)
T3 sequence (Q03181 whole entry): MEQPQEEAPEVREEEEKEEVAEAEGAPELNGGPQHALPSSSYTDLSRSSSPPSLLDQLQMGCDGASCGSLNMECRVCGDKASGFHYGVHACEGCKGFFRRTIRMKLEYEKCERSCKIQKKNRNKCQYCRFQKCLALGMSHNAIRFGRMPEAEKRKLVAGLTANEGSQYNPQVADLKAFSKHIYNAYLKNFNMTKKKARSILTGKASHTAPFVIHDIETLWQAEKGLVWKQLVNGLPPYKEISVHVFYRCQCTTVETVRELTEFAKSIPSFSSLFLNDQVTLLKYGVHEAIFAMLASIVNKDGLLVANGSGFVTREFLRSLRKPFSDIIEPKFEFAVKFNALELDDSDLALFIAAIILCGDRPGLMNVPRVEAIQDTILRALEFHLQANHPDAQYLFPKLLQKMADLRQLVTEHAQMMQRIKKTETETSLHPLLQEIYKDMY
Description: Binding affinity to PPARdelta (unknown origin) by TR-FRET based LanthaScreen competitive binding assay

[5] = molecular target: T4, Peroxisome proliferator-activated receptor delta (Homo sapiens) (UniProt Q03181); experiment: Binding affinity to PPARdelta (unknown origin) at 10 uM by TR-FRET based LanthaScreen competitive binding assay relative to control
T4 sequence (whole entry): T3 sequence (Q03181 whole entry)

Mesenchymal stem cells [6] = experiment: cells; details: Homo sapiens, 120 h
Description: Induction of adipogenesis in human differentiated BMMSC cells assessed as increase in adiponectin secretion and measured on 5 day in presence of IDX induction medium by ELISA

Activity [2]	Activity [3]	Activity [5]	SMILES	other results
–	–	–	COc1ccc(Cl)cc1C(=O)NCCc1ccc(S(=O)(=O)NC(=O)NC2CCCCC2)cc1 [GLYBURIDE]	fold change (FC) (Mesenchymal stem cells [1]): 6.2
8.7%	25.5%	–	O[C@H]1[C@@H](O)CO[C@@H]1Cn1cnc2c(NCc3cccc(Br)c3)nc(Cl)nc21	Ki [4]: 3400 nM
7.6%	11.5%	8%	O[C@H]1[C@@H](O)CO[C@@H]1Cn1cnc2c(NCc3cccc(F)c3)ncnc21	–
13.2%	3.9%	16.3%	O[C@H]1[C@@H](O)CO[C@@H]1Cn1cnc2c(NCc3cccc(I)c3)ncnc21	–
–	–	–	CCc1ccc(CCOc2ccc(CC3SC(=O)NC3=O)cc2)nc1 (stereo unspecified) [PIOGLITAZONE]	EC50 (Mesenchymal stem cells [6]): 900 nM; fold change (FC) (Mesenchymal stem cells [1]): 7.8
17.2%	–	–	O[C@H]1[C@@H](O)CO[C@@H]1Cn1cnc2c(NCc3cccc(I)c3)nc(Cl)nc21	–
3.8%	12.5%	1.2%	O[C@H]1[C@@H](O)CO[C@@H]1Cn1cnc2c(NCc3cccc(Br)c3)ncnc21	–
3.1%	5.9%	21.5%	O[C@H]1[C@@H](O)CO[C@@H]1Cn1cnc2c(NCc3cccc(Cl)c3)ncnc21	–
14.5%	6.3%	29.5%	O[C@H]1[C@@H](O)CO[C@@H]1Cn1cnc2c(NCc3cccc(F)c3)nc(Cl)nc21	–
3.9%	–	–	O[C@@H]1[C@H](O)CO[C@H]1Cn1cnc2c(NCc3cccc(I)c3)nc(Cl)nc21	–
19.1%	10.7%	–	O[C@H]1[C@@H](O)CO[C@@H]1Cn1cnc2c(NCc3cccc(Cl)c3)nc(Cl)nc21	Activity ([5]; filed as antagonist): 46.3%
